Assay: Placebo controlled, dose escalation pharmacokinetic study of oral (Z)-Endoxifen capsules (serum endoxifen; incl. accumulation ratios and dose linearity)
Assay type: in vivo, human
Parameters: Serum concentration, Maximum / Serum concentration, GeoMean / Serum concentration, Mean / Serum concentration, Median / terminal rate constant: unit not given here
Conditions: for AUC24hr / AUC to last time point / AUC(0-inf): in ng·h/mL
From the text: An objective of the study was to assess the safety and tolerability of oral (Z)-Endoxifen when administered […] orally as a capsule to healthy female volunteers. A secondary objective was to assess the pharmacokinetics of multiple doses of oral (Z)-Endoxifen in the subjects.
Generally, healthy female volunteers aged ≥18 years and ≤65 years were enrolled. 24 participants were enrolled in 3 cohorts and will be administered study drug orally. Three dose levels of orally administered (Z)-Endoxifen were investigated in 3 cohorts. In each cohort participants were randomized to receive an oral (Z)-Endoxifen or placebo in a blinded fashion. Enteric-resistant capsules used in the study were designed as delayed release capsules to resist rupture for at least 30 minutes, but typically, for about 2 hours, under gastric conditions and then open fully in intestinal fluid (DRCaps; Capsugel, a Lonza Company, USA). Enteric-resistant (Swedish Orange size Zero (0); Capsugel, USA) DRCaps capsules manually filled with 1, 2 or 4 mg of (Z)-endoxifen neat in compliance with GMP requirements were used. Placebo capsules contained microcrystalline cellulose an inert common capsule and tablet excipient.
Each cohort enrolled 8 participants, with 6 participants receiving (Z)-Endoxifen 1 mg capsules orally at 1 mg (Cohort 1), 2 mg (Cohort 2) or 4 mg (Cohort 3) doses and 2 participants receiving matching placebo capsules. In Cohort 1 (Dose Level=1 mg) two participants (sentinels) were dosed 24 hours prior to the remaining participants. One sentinel was dosed with (Z)-Endoxifen and the other with placebo. The remaining six participants in Cohort 1 were dosed as no safety concerns were identified in the sentinel participants. The non-sentinel participants in Cohort 1 were admitted to the clinical research facility at least one day later than the sentinels. There were no sentinels in Cohorts 2 and 3.
Participant engagement in this study was for a period of 56 days. These included a 28 day screening period, and a 7 day post treatment period for Pharmacokinetic (PK) sampling. There were two confinement periods, one at the beginning and one at the end of the dosing periods. Participants were confined to the clinical facility on Days-1 through to Day 2 and Days 21 and 22. If participants were to experience any clinically significant adverse events during the study, they would have been required to remain in the clinical facility for further observation at the discretion of the Principal Investigator (PI).
Healthy female volunteers were screened within 28 days prior to commencement of dosing. Participants were admitted to the clinical facility on Day-1 for up to 3 days. The first dose of (Z)-Endoxifen or placebo capsules was administered on Day 1. Following completion of all safety assessments and sampling for PK analyses, participants were discharged from the clinical facility on Day 2. The first dose on Day 1 was followed by a 6-day treatment free period (Days 2-7). Each participant returned to the clinical facility for PK blood draws and safety assessments during the treatment free period on study Days 4 and 6. On Day 8 participants commenced daily administration of (Z)-Endoxifen capsules or placebo capsules for 14 consecutive days (Days 8-21). Participants were supplied with study drug capsules and asked to self administer daily. Participants visited the clinical facility on Days 11, 14 and 17, prior to dose administration, for PK blood draws and safety assessments. On the morning of Day 21 each participant returned to the clinical facility prior to dose administration and were confined to the facility until Day 22 to allow for the collection of PK blood draws and safety assessments. The Day 21 dose was the last administration of study drug. Participants were discharged from the clinical facility on Day 22 and returned for PK blood draws and safety assessments on study Days 24, 26, and 28. […]

[1] = Day 1, dose 4 mg oral, Maximum, N 6
[2] = Day 1, dose 4 mg oral, Minimum, N 6
[3] = Day 21, dose 2 mg oral once daily, GeoMean, N 6
[4] = Day 21, dose 2 mg oral once daily, Maximum, N 6
[5] = Day 21, dose 2 mg oral once daily, Mean, N 6
[6] = Day 21, dose 2 mg oral once daily, Median, N 6
[7] = Day 21, dose 2 mg oral once daily, Minimum, N 6
[8] = Day 21, dose 4 mg oral once daily, GeoMean, N 6
[9] = Day 21, dose 4 mg oral once daily, Maximum, N 6
[10] = Day 21, dose 4 mg oral once daily, Mean, N 6
[11] = Day 21, dose 4 mg oral once daily, Median, N 6
[12] = Day 21, dose 4 mg oral once daily, Minimum, N 6

SMILES: CC/C(=C(\c1ccc(O)cc1)c1ccc(OCCNC)cc1)c1ccccc1 [(Z)-Endoxifen, (Z)-4-(1-(4-(2-(methylamino)ethoxy)phenyl)-2-phenylbut-1-enyl) phenol]
- CL/F, Min (Day 1, 1 mg, N = 5): 1.35 L/h
- Cmax, Max (Day 1, 1 mg, N = 5): 12.0 ng/mL
- Cmax, Min (Day 1, 1 mg, N = 5): 7.0 ng/mL
- Kel, GeoMean (Day 1, 1 mg, N = 5): 0.015 h⁻¹
- Kel, Max (Day 1, 1 mg, N = 5): 0.018 h⁻¹
- Kel, Mean (Day 1, 1 mg, N = 5): 0.015 h⁻¹
- Kel, Median (Day 1, 1 mg, N = 5): 0.015 h⁻¹
- Kel, Min (Day 1, 1 mg, N = 5): 0.013 h⁻¹
- Thalf, GeoMean (Day 1, 1 mg, N = 5): 45.6 h
- Thalf, Max (Day 1, 1 mg, N = 5): 54.4 h
- Thalf, Mean (Day 1, 1 mg, N = 5): 46.1 h
- Thalf, Median (Day 1, 1 mg, N = 5): 47.2 h
- Thalf, Min (Day 1, 1 mg, N = 5): 37.5 h
- Tmax, Max (Day 1, 1 mg, N = 5): 8.08 h
- Tmax, Min (Day 1, 1 mg, N = 5): 2.0 h
- CL/F, GeoMean (Day 1, 2 mg, N 6): 1.85 L/h
- CL/F, Maximum (Day 1, 2 mg, N 6): 2.65 L/h
- CL/F, Mean (Day 1, 2 mg, N 6): 1.89 L/h
- CL/F, Median (Day 1, 2 mg, N 6): 1.83 L/h
- CL/F, Minimum (Day 1, 2 mg, N 6): 1.34 L/h
- Cmax, Maximum (Day 1, 2 mg, N 6): 22.0 ng/mL
- Cmax, Minimum (Day 1, 2 mg, N 6): 13.0 ng/mL
- Kel, GeoMean (Day 1, 2 mg, N 6): 0.015 h⁻¹
- Kel, Maximum (Day 1, 2 mg, N 6): 0.018 h⁻¹
- Kel, Mean (Day 1, 2 mg, N 6): 0.015 h⁻¹
- Kel, Median (Day 1, 2 mg, N 6): 0.016 h⁻¹
- Kel, Minimum (Day 1, 2 mg, N 6): 0.010 h⁻¹
- Thalf, GeoMean (Day 1, 2 mg, N 6): 47.7 h
- Thalf, Maximum (Day 1, 2 mg, N 6): 68.1 h
- Thalf, Mean (Day 1, 2 mg, N 6): 49.0 h
- Thalf, Median (Day 1, 2 mg, N 6): 44.0 h
- Thalf, Minimum (Day 1, 2 mg, N 6): 37.8 h
- Tmax, Minimum (Day 1, 2 mg, N 6): 3.00 h
- terminal rate constant (Day 1, dose 4 mg oral, GeoMean, N 6): 0.017
- Cmax [1]: 62.0 ng/mL
- Tmax [1]: 10.00 h
- apparent terminal half life (t½) [1]: 56.0 h
- terminal rate constant [1]: 0.022
- AUC24hr [1]: 1116
- AUC to last time point [1]: 3574
- AUC(0-inf) [1]: 4624
- terminal rate constant (Day 1, dose 4 mg oral, Mean, N 6): 0.017
- terminal rate constant (Day 1, dose 4 mg oral, Median, N 6): 0.017
- Cmax [2]: 14.0 ng/mL
- Tmax [2]: 3.00 h
- apparent terminal half life (t½) [2]: 31.6 h
- terminal rate constant [2]: 0.012
- AUC24hr [2]: 258
- AUC to last time point [2]: 691
- AUC(0-inf) [2]: 736
- CL/F, GeoMean (Day 21, 1 mg, N = 5): 2.32 L/h
- CL/F, Maximum (Day 21, 1 mg, N = 5): 4.03 L/h
- CL/F, Mean (Day 21, 1 mg, N = 5): 2.49 L/h
- CL/F, Median (Day 21, 1 mg, N = 5): 1.90 L/h
- CL/F, Minimum (Day 21, 1 mg, N = 5): 1.57 L/h
- Cmax, Maximum (Day 21, 1 mg, N = 5): 34.0 ng/mL
- Cmax, Minimum (Day 21, 1 mg, N = 5): 14.0 ng/mL
- Kel, GeoMean (Day 21, 1 mg, N = 5): 0.013 h⁻¹
- Kel, Maximum (Day 21, 1 mg, N = 5): 0.017 h⁻¹
- Kel, Mean (Day 21, 1 mg, N = 5): 0.014 h⁻¹
- Kel, Median (Day 21, 1 mg, N = 5): 0.014 h⁻¹
- Kel, Minimum (Day 21, 1 mg, N = 5): 0.011 h⁻¹
- Thalf, GeoMean (Day 21, 1 mg, N = 5): 51.7 h
- Thalf, Maximum (Day 21, 1 mg, N = 5): 65.8 h
- Thalf, Mean (Day 21, 1 mg, N = 5): 52.6 h
- Thalf, Median (Day 21, 1 mg, N = 5): 49.3 h
- Thalf, Minimum (Day 21, 1 mg, N = 5): 40.6 h
- Tmax, Maximum (Day 21, 1 mg, N = 5): 8.42 h
- Css (AUCtau/tau) [3]: 37.4 ng/mL
- terminal rate constant [3]: 0.016
- Cmax [4]: 65.0 ng/mL
- Css (AUCtau/tau) [4]: 49.1 ng/mL
- Tmax [4]: 6.05 h
- apparent terminal half life (t½) [4]: 50.8 h
- terminal rate constant [4]: 0.021
- AUC24hr [4]: 1177
- Css (AUCtau/tau) [5]: 38.0 ng/mL
- terminal rate constant [5]: 0.016
- Css (AUCtau/tau) [6]: 37.9 ng/mL
- terminal rate constant [6]: 0.015
- Cmax [7]: 35.0 ng/mL
- Css (AUCtau/tau) [7]: 29.8 ng/mL
- Tmax [7]: 2.00 h
- apparent terminal half life (t½) [7]: 33.0 h
- terminal rate constant [7]: 0.014
- AUC24hr [7]: 716
- Css (AUCtau/tau) [8]: 72.7 ng/mL
- terminal rate constant [8]: 0.016
- Cmax [9]: 178.0 ng/mL
- Css (AUCtau/tau) [9]: 126.4 ng/mL
- Tmax [9]: 10.00 h
- apparent terminal half life (t½) [9]: 54.3 h
- terminal rate constant [9]: 0.020
- AUC24hr [9]: 3034
- Css (AUCtau/tau) [10]: 85.1 ng/mL
- terminal rate constant [10]: 0.016
- Css (AUCtau/tau) [11]: 102.9 ng/mL
- terminal rate constant [11]: 0.015
- Cmax [12]: 42.0 ng/mL
- Css (AUCtau/tau) [12]: 25.7 ng/mL
- Tmax [12]: 2.00 h
- apparent terminal half life (t½) [12]: 34.0 h
- terminal rate constant [12]: 0.013
- AUC24hr [12]: 616

— patent US12275684B2, “Methods for making and using endoxifen” (Atossa Therapeutics, Inc., priority 2017, dated 2025)
